Source: US9745257B2, “Phenyl-guanidine derivatives” (Universidad Nacional de Quilmes, priority 2011, dated 2017)
Read-outs that look alike come from different tables or passages of the source.

Legend:
[1] = system: LN229 (human glioblastoma); experiment: Proliferation assay (MTT), LN229 cells; assay type: cell-based; conditions: LN-229, 72 h, 10% FBS
Description: (§1) Cells were maintained in monolayer culture with the corresponding media, supplemented with 5% fetal bovine serum (FBS) previously inactivated with heat, 2 mM glutamine and […] gentamicine.
(§2) The cells were treated for 72 hours in the presence of FBS 10% with different doses of the compounds in 96 wells at a 2500 cell/well density. The cell growth was estimated by MTT test, for which to the cell monolayers was added MTT, incubated and resuspended in DMSO. Finally, the number of cells was estimated by measuring the absorbance values at 570 nm.
(§3) Compound (65) as a representative example of Rac1 inhibitor compounds according to the present invention was tested in cell proliferation assays performed with following cancer cell lines F3II (murine mammary carcinoma), 3LL (murine lung carcinoma), LN229 (human glioblastoma), MCF7 (human mammary carcinoma), H125 (human lung carcinoma), PC3 (human prostate adenocarcinoma) and MDA-MB-231 (human mammary carcinoma).
as §2, with “trated” for “treated”

[2] = system: F3II (murine mammary carcinoma); experiment: Proliferation assay (MTT), F3II cells; assay type: cell-based; conditions: Mus musculus, 72 h, 10% FBS
Description: as §1, §2, §3

[3] = system: MDA-MB-231 (human mammary carcinoma); experiment: Proliferation assay (MTT), MDA-MB-231 cells; assay type: cell-based; conditions: 72 h, 10% FBS
Description: as §1, §2, §3

Rac1 = biological target: T1, Rac1 (Homo sapiens, UniProt P63000); experiment: Pull-Down assay of intracellular active Rac levels (Rac-GTP) in LN229 cells; assay type: cell-based; conditions: 10 μM, EGF 100 ng/ml, FIG. 3
T1 construct: endogenous in cells; host or cells: LN229 (human glioblastoma)
Description: This assay consists in the determination of inhibition power of the compounds of the invention over the intracellular active Rac1 levels (Rac-GTP). For determining the levels of Rac-GTP, the “Pull-Down” assay was used, which is based in the conformation bond of Rac-GTP to the p21 domain of PAK1 protein, which is the direct effector of Rac-GTP (Wanf H. et al.; J. Biol. Che. 2002, 277: 4541-4550).
LN229 cells (human glioblastoma) were seeded in 6-well cell culture plaques and were kept in absence of FBS for 48 hours (starvation). Afterwards, they were treated with compounds (25) and (65) and they were stimulated for 15 minutes with EGF (100 ng/ml), washed with phosphate buffered saline (PBS) at low temperature and lysated in a buffer containing 8 μg of the fusion protein GST-PBD, […] Tris-HCl, pH 7.5, […] DTT, 5 mM MgCl2, 150 mM NaCl, 0.5% NP-40, 5 mM β-glicerophosphate and protease inhibitors (5 μg/ml 4-(2-aminoethyl)bencenesulfonyl fluoride, 5 μg (ml leupeptin, 5 μg/ml aprotinin and 1 μg/ml pepstatin A). The lysates were centrifuged at 14,000×g (4° C., 10 min) and then incubated with Glutation-Agarose Beads (GAB, Amersham Pharmacia) previously fitted with GST-Pak at 4° C. for 1 hour. After washing, the GABs were boiled for 5 minutes in loading buffer. […] The total Rac levels were analyzed in a similar way from aliquots taken from the cell lysate.

[4] = system: F3II mammary carcinoma cells; experiment: Antimetastatic effect, metastatic lung colonization by F3II cells in mice; assay type: in vivo; conditions: 25 mg/kg/day i.p., days 0 to 21, F3II cells i.v., BALB/c mice, FIG. 9
Description: Specific pathogen-free female BALB/c inbred mice from UNLP (Buenos Aires, Argentina), with an age of 8-10 weeks and a average weight of 20 g, were used. They were housed in plastic cages under standard conditions and had access to rodent chow and water ad libitum. On the designated day 0 of the experiment, F3II mammary carcinoma cells were injected into the lateral tail vein of unanesthetized mice at a concentration of 2×10^5 viable cells/0.3 ml DMEM/mice. At day 21, animals were sacrificed by cervical dislocation and necropsied. To investigate the presence of lung metastasis, lungs were removed, fixed in Bouin's solution and the number of surface nodules was determined under a dissecting microscope.
(§4) To study the effect of compound (25) on metastatic lung colonization, mice were injected i.p at daily doses of 25 mg/kg body weight from days 0 to 21.

[5] = Tolerability and animal weight in mice; assay type: in vivo; conditions: adult female BALB/c mice, 25 mg/kg/day i.p.
Description: as §4

[6] = system: MCF7 (human mammary carcinoma); experiment: Proliferation assay (MTT), MCF7 cells; assay type: cell-based; conditions: 72 h, 10% FBS, average of three experiments
Description: as §1, §2, §3

[7] = system: 3LL (murine lung carcinoma); experiment: Proliferation assay (MTT), 3LL cells; assay type: cell-based; conditions: Mus musculus, 72 h, 10% FBS, average of three experiments
Description: as §1, §2, §3

[8] = system: H125 (human lung carcinoma); experiment: Proliferation assay (MTT), H125 cells; assay type: cell-based; conditions: NCI-H125, 72 h, 10% FBS, average of three experiments
Description: as §1, §2, §3

[9] = system: PC3 (human prostate adenocarcinoma); experiment: Proliferation assay (MTT), PC3 cells; assay type: cell-based; conditions: PC-3, 72 h, 10% FBS, average of three experiments
Description: as §1, §2, §3

Rac-Tiam complex = biological target: T2, Rac-Tiam complex (Homo sapiens, UniProt P63000); experiment: Precipitation affinity of Tiam with recombinant GST-Rac (Western Blot anti Tiam1); assay type: binding; conditions: Western Blot anti Tiam1 vs. control, FIG. 2
T2 construct: GST
Description: Compounds (65) and (25) were tested in order to determine its inhibition power over the interaction Rac-Tiam. Thus, the precipitation affinity of Tiam with the recombinant protein GST-Rac was evaluated in presence of compound (65).

[10] = system: LN229 human glioblastoma cells; experiment: Polymerization of actin filaments by immunofluorescence in LN229 cells; assay type: cell-based; conditions: LN229 starved 24 h, treated 1 hour, EGF stimulated, FIG. 5
Description: The effect of compound (65) over the polymerization of actin filaments was evaluated by immunofluorescence with conjugated faloidine with the fluorochrome AlexaFluor (Invitrogen). LN229 human glioblastoma cells were starvated for 24 hours, treated with compound (65) for 1 hour, and stimulated with EGF. […] An accurate sign of cellular boundaries is observed in all cells due to the cortical actin marking.

[11] = system: LN229 human glioblastoma cells; experiment: Trans-well migration assay; assay type: cell-based; conditions: 10 μM, 50 μM and 100 μM, 24 hours, FIG. 6
Description: Cell motility is a key process in the invasion and tumor metastasis processes and it is closely regulated by the Rho-GTPases family, particularly by Rac. This assay consists in the determination of the antimigration effect of compound (65) on LN229 human glioblastoma cells.
The cell migration in vitro was measured by the trans-well migration assay, wherein LN229 cells previously treated with different concentrations (10 μM, 50 μM and 100 μM) of compound (65) and serum deprived were placed on the upper layer of a cell permeable membrane of a trans-well plaque. Following an incubation perior of 24 hours, the cells migrated through the 8 μm pores of the membrane to the lower layer.

LN229 cells = experiment: Cell cycle effect by flow cytometry; assay type: cell-based, human
Description: The effect of compound (65) on the cell cycle was studied by flow citometry. It is known that Rac1 GTPase is related with transcription of molecules such as cyclin D1, which are required to progress from G1 phase to S phase. Inhibition of Rac1 induces cell arrest in G0-G1 phase.
LN229 cells synchronized in G0-G1 phase and stimulated for 24 hours with FBS were treated with compound (65).

[12] = read-out: IC50 (μM) tested in LN229 cells (Table 2)

In the case of `N=C(Nc1ccccc1)Nc1ccccc1C(F)(F)F` [(27), N-phenyl-N′-[2-(trifluoromethyl)phenyl]guanidine], the IC50 [1, 12] is reported as 211 µM and the melting point is reported as 108 to 109 °C.

In the case of `N=C(Nc1cccc([N+](=O)[O-])c1)Nc1ccccc1C(F)(F)F` [(41), N-(3-nitrophenyl)-N′-[2-(trifluoromethyl)phenyl]guanidine], the IC50 [1, 12] is reported as 88 µM.

With `Cc1ccccc1NC(=N)Nc1ccccc1C(F)(F)F` [(64), N-(2-methylphenyl)-N′-[2-(trifluoromethyl)phenyl]guanidine] the IC50 [1, 12] was 175 µM and the melting point was 129 °C.

In the case of `Cc1cc(C)cc(NC(=N)Nc2ccccc2C(F)(F)F)c1` [Compound (25), N-(3,5-dimethylphenyl)-N′-[2-(trifluoromethyl)phenyl]guanidine], the IC50 ([2]; read-out: IC50 values, F3II (Table 3)) is reported as 36 µM, the IC50 [1, 12] is reported as 73 µM and the IC50 ([3]; read-out: IC50 values, MDA-MB-231 (Table 3)) is reported as 40 µM. The “Effect over the intracellular active Rac levels (Rac-GTP)” value (Rac1) was “inhibitory effect”, the “Reduction of the formation of metastatic lung colonies” value [4] was “about 35%” and the “Changes in animal weight compared to the control group” value [5] was “no significant changes in animal weight”. The Tolerability [5] was “well tolerated”.

`Cc1cc(C)nc(NC(=N)Nc2ccccc2C(F)(F)F)n1` [Compound (65), N-[4,6-bis(methyl)pyrimidin-2-yl]-N′-[2-(trifluoromethyl)phenyl]guanidine] showed an IC50 ([2]; average of three experiments, read-out: IC50 values, F3II) of 61 µM, an IC50 [6] of 44 µM and an IC50 [7] of 68 µM. It also gave an IC50 [8] of 127 µM, an IC50 ([1]; average of three experiments, read-out: IC50 values, LN229) of 73 µM and an IC50 [9] of 138 µM. The IC50 ([3]; average of three experiments, read-out: IC50 values, MDA-MB-231) was 48 µM, the “Effect over Rac-Tiam complex (Rac interaction with the activator)” value (Rac-Tiam complex) was “decrease of Rac interaction with the activator” and the “Effect over the intracellular active Rac levels (Rac-GTP)” value (Rac1) was “inhibitory effect”. For the same compound, the “Intracellular fibrillar actin levels” value [10] was “decreasing of intracellular fibrilar actin levels”, the Cell migration [11] was “significantly decreased the cell migration in a dose dependent manner” and the “Cell population in G0-G1 phase” value (LN229 cells; 50 μM, LN229 synchronized in G0-G1, stimulated 24 hours with FBS, controls 25%) was 60%. The Cell cycle arrest (LN229 cells; LN229 cells, FIG. 7) was “arrests tumoral cells in G0-G1 phase in a dose dependent manner”.
